Assays:
[1] = AUC (0 to infinity) in Sprague-Dawley rat at 2.5 mg/kg, po measured during 1 to 24 hrs by LC-MS method; assay type: ADME, organism-based, Plasma; parameters: dose 2.5 mg/kg, route oral, time infinity; settings: Sprague-Dawley, plasma
[2] = biological target: Prostaglandin G/H synthase 1 (Homo sapiens, UniProt P23219); assay: Inhibition of human recombinant COX1 pre-incubated for 15 mins before fluorometric substrate addition by fluorescence based assay
[3] = Cmax in Sprague-Dawley rat at 1 mg/kg, iv measured during 1 to 24 hrs by LC-MS method; assay type: ADME, organism-based; parameters: dose 1 mg/kg, route intravenous; settings: in vivo
[4] = Apparent oral clearance in Sprague-Dawley rat at 1 mg/kg, iv measured during 1 to 24 hrs by LC-MS method; assay type: ADME, organism-based; parameters: dose 1 mg/kg, route oral; settings: in vivo
[5] = biological target: T1, Prostaglandin G/H synthase 2 (Homo sapiens, UniProt P35354); assay: Inhibition of human recombinant COX2 pre-incubated for 15 mins before fluorometric substrate addition by fluorescence based assay
T1 sequence (P35354 whole entry): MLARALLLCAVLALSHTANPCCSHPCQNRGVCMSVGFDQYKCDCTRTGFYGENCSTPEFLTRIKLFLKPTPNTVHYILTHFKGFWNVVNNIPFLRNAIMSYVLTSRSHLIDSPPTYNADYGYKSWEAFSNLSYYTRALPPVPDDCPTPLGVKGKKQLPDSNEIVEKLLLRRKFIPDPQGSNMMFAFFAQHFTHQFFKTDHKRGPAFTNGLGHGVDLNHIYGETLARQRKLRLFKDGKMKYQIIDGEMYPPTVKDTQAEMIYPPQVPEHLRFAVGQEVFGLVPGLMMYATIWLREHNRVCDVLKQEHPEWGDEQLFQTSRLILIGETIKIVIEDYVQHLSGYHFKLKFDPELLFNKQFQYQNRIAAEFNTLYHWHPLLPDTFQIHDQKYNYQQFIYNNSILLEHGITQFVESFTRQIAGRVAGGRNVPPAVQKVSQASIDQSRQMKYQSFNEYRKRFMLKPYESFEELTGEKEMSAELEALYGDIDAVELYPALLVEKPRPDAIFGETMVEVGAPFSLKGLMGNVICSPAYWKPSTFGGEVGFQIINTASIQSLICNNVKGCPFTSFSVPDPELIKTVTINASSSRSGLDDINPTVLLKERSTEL

[6] = Volume of distribution in Sprague-Dawley rat at 1 mg/kg, iv measured during 1 to 24 hrs by LC-MS method; assay type: ADME, organism-based; parameters: dose 1 mg/kg, route intravenous; settings: in vivo
[7] = AUC (0 to infinity) in Sprague-Dawley rat at 1 mg/kg, iv measured during 1 to 24 hrs by LC-MS method; assay type: ADME, organism-based, Plasma; parameters: time infinity, dose 1 mg/kg, route intravenous; settings: Sprague-Dawley, plasma
[8] = Cmax in Sprague-Dawley rat at 2.5 mg/kg, po measured during 1 to 24 hrs by LC-MS method; assay type: ADME, organism-based; parameters: dose 2.5 mg/kg, route oral; settings: in vivo
[9] = Oral bioavailability in Sprague-Dawley rat at 2.5 mg/kg measured during 1 to 24 hrs by LC-MS method; assay type: ADME, organism-based; settings: Sprague-Dawley, in vivo
[10] = Apparent oral clearance in Sprague-Dawley rat at 2.5 mg/kg, po measured during 1 to 24 hrs by LC-MS method; assay type: ADME, organism-based; parameters: dose 2.5 mg/kg, route oral; settings: Sprague-Dawley, in vivo
Rattus norvegicus [11] = assay: Volume of distribution in Sprague-Dawley rat at 2.5 mg/kg, po measured during 1 to 24 hrs by LC-MS method; assay type: ADME, organism-based; parameters: dose 2.5 mg/kg, route oral; settings: in vivo
Rattus norvegicus [12] = assay: Tmax in Sprague-Dawley rat at 2.5 mg/kg, po measured during 1 to 24 hrs by LC-MS method; assay type: ADME, organism-based; parameters: dose 2.5 mg/kg, route oral; settings: in vivo
Rattus norvegicus [13] = assay: Half life in Sprague-Dawley rat at 2.5 mg/kg, po measured during 1 to 24 hrs by LC-MS method; assay type: ADME, organism-based; parameters: dose 2.5 mg/kg, route oral; settings: in vivo
Rattus norvegicus [14] = assay: Half life in Sprague-Dawley rat at 1 mg/kg, iv measured during 1 to 24 hrs by LC-MS method; assay type: ADME, organism-based; parameters: dose 1 mg/kg, route intravenous; settings: in vivo
[15] = Volume of distribution in Sprague-Dawley rat at 2.5 mg/kg, iv measured during 1 to 24 hrs by LC-MS method; assay type: ADME, organism-based; parameters: dose 2.5 mg/kg, route intravenous; settings: in vivo
Rattus norvegicus [16] = assay: Volume of distribution in Sprague-Dawley rat at 5 mg/kg, po measured during 1 to 24 hrs by LC-MS method; assay type: ADME, organism-based; parameters: dose 5 mg/kg, route oral; settings: in vivo
[17] = Apparent oral clearance in Sprague-Dawley rat at 5 mg/kg, po measured during 1 to 24 hrs by LC-MS method; assay type: ADME, organism-based; parameters: dose 5 mg/kg, route oral; settings: in vivo
Rattus norvegicus [18] = assay: Tmax in Sprague-Dawley rat at 5 mg/kg, po measured during 1 to 24 hrs by LC-MS method; assay type: ADME, organism-based; parameters: dose 5 mg/kg, route oral; settings: in vivo
[19] = Apparent oral clearance in Sprague-Dawley rat at 2.5 mg/kg, iv measured during 1 to 24 hrs by LC-MS method; assay type: ADME, organism-based; parameters: dose 2.5 mg/kg, route oral; settings: in vivo
Rattus norvegicus [20] = assay: Antinociceptive activity in orally dosed Sprague-Dawley rat model of carrageenan-induced foot paw hyperalgesia assessed as paw withdrawal latency; assay type: functional, organism-based
Rattus norvegicus [21] = assay: Antiinflammatory activity in orally dosed Sprague-Dawley rat model of carrageenan-induced air pouch inflammation assessed as reduction in PGE2 level by ELISA method; assay type: functional, organism-based
[22] = Oral bioavailability in Sprague-Dawley rat at 5 mg/kg measured during 1 to 24 hrs by LC-MS method; assay type: ADME, organism-based; settings: in vivo
Rattus norvegicus [23] = assay: Antiinflammatory activity in orally dosed Sprague-Dawley rat model of carrageenan-induced foot paw edema assessed as reduction in edema by plethysmometry; assay type: functional, organism-based
Rattus norvegicus [24] = assay: Half life in Sprague-Dawley rat at 5 mg/kg, po measured during 1 to 24 hrs by LC-MS method; assay type: ADME, organism-based; parameters: dose 5 mg/kg, route oral; settings: in vivo
Rattus norvegicus [25] = assay: AUC (0 to infinity) in Sprague-Dawley rat at 2.5 mg/kg, iv measured during 1 to 24 hrs by LC-MS method; assay type: ADME, organism-based, Plasma; parameters: time infinity, dose 2.5 mg/kg, route intravenous; settings: in vivo
[26] = Cmax in Sprague-Dawley rat at 5 mg/kg, po measured during 1 to 24 hrs by LC-MS method; assay type: ADME, organism-based; parameters: dose 5 mg/kg, route oral; settings: in vivo
Rattus norvegicus [27] = assay: Half life in Sprague-Dawley rat at 2.5 mg/kg, iv measured during 1 to 24 hrs by LC-MS method; assay type: ADME, organism-based; parameters: dose 2.5 mg/kg, route intravenous; settings: in vivo
Rattus norvegicus [28] = assay: AUC (0 to infinity) in Sprague-Dawley rat at 5 mg/kg, po measured during 1 to 24 hrs by LC-MS method; assay type: ADME, organism-based, Plasma; parameters: time infinity, dose 5 mg/kg, route oral; settings: in vivo
Rattus norvegicus [29] = assay: Antiarthritic activity in Lewis rat model of adjuvant-induced arthritis administrated by oral gavage once daily; assay type: functional; settings: tested as the 2H-labelled form
[30] = Cmax in Sprague-Dawley rat at 2.5 mg/kg, iv measured during 1 to 24 hrs by LC-MS method; assay type: ADME, organism-based; parameters: dose 2.5 mg/kg, route intravenous; settings: in vivo
[31] = Apparent oral clearance in Sprague-Dawley rat at 30 mg/kg, po measured during 1 to 24 hrs by LC-MS method; assay type: ADME, organism-based; parameters: dose 30 mg/kg, route oral; settings: in vivo
[32] = AUC (0 to infinity) in Sprague-Dawley rat at 30 mg/kg, po measured during 1 to 24 hrs by LC-MS method; assay type: ADME, organism-based; parameters: time infinity, dose 30 mg/kg, route oral; settings: plasma
[33] = Apparent oral clearance in Sprague-Dawley rat at 10 mg/kg, iv measured during 1 to 24 hrs by LC-MS method; assay type: ADME, organism-based; parameters: dose 10 mg/kg, route oral; settings: in vivo
[34] = Oral bioavailability in Sprague-Dawley rat at 30 mg/kg measured during 1 to 24 hrs by LC-MS method; assay type: ADME, organism-based; settings: in vivo
[35] = Volume of distribution in Sprague-Dawley rat at 10 mg/kg, iv measured during 1 to 24 hrs by LC-MS method; assay type: ADME, organism-based; parameters: dose 10 mg/kg, route intravenous; settings: in vivo
Rattus norvegicus [36] = assay: Half life in Sprague-Dawley rat at 10 mg/kg, iv measured during 1 to 24 hrs by LC-MS method; assay type: ADME, organism-based; parameters: dose 10 mg/kg, route intravenous; settings: in vivo
[37] = Tmax in Sprague-Dawley rat at 30 mg/kg, po measured during 1 to 24 hrs by LC-MS method; assay type: ADME, organism-based; parameters: dose 30 mg/kg, route oral; settings: in vivo
[38] = Cmax in Sprague-Dawley rat at 10 mg/kg, iv measured during 1 to 24 hrs by LC-MS method; assay type: ADME, organism-based; parameters: dose 10 mg/kg, route intravenous; settings: in vivo
[39] = Cmax in Sprague-Dawley rat at 30 mg/kg, po measured during 1 to 24 hrs by LC-MS method; assay type: ADME, organism-based; parameters: dose 30 mg/kg, route oral; settings: in vivo
Rattus norvegicus [40] = assay: Volume of distribution in Sprague-Dawley rat at 30 mg/kg, po measured during 1 to 24 hrs by LC-MS method; assay type: ADME, organism-based; parameters: dose 30 mg/kg, route oral; settings: in vivo
[41] = AUC (0 to infinity) in Sprague-Dawley rat at 10 mg/kg, iv measured during 1 to 24 hrs by LC-MS method; assay type: ADME, organism-based; parameters: time infinity, dose 10 mg/kg, route intravenous; settings: plasma
[42] = Half life in Sprague-Dawley rat at 30 mg/kg, po measured during 1 to 24 hrs by LC-MS method; assay type: ADME, organism-based; parameters: dose 30 mg/kg, route oral; settings: in vivo

Sequence of Prostaglandin G/H synthase 1 (P23219 whole entry): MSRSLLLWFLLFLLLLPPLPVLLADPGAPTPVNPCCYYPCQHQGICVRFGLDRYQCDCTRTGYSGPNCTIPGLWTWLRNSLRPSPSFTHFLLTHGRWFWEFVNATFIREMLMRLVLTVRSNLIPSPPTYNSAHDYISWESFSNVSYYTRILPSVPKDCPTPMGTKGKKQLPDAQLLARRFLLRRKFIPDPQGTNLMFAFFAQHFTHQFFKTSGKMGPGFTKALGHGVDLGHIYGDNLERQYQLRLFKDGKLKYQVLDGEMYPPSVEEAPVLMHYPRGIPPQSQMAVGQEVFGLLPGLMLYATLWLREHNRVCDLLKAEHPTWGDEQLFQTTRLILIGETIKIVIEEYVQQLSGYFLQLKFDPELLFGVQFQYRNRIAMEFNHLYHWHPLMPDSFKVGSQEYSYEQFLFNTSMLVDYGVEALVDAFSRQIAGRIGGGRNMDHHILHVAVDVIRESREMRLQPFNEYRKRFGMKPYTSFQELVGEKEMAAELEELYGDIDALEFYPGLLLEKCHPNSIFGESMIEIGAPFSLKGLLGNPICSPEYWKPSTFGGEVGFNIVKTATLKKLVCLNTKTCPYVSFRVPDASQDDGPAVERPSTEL

SMILES: Cc1cc2c(c(C)c1Br)C=C(C(=O)O)C(C(F)(F)F)O2 (centres undefined)
- AUC(0-inf) [1]: 12500 ng·h/mL
- IC50 [2]: > 100000 nM
- Cmax [3]: 16700 ng/mL
- CL/F [4]: 1.98 mL/min/kg
- IC50 [5]: 190 nM
- Vd [6]: 0.38 L/kg
- AUC(0-inf) [7]: 8840 ng·h/mL
- Cmax [8]: 5340 ng/mL
- bioavailability [9]: 56.7%
- CL/F [10]: 3.52 mL/min/kg
- Vd (Rattus norvegicus [11]): 1.13 L/kg
- Tmax (Rattus norvegicus [12]): 0.375 h
- t1/2 (Rattus norvegicus [13]): 3.53 h
- t1/2 (Rattus norvegicus [14]): 2.3 h

SMILES: Cc1cc(Br)cc2c1OC(C(F)(F)F)C(C(=O)O)=C2 (centres undefined)
- Vd [15]: 0.15 L/kg
- IC50 [2]: > 100000 nM
- Vd (Rattus norvegicus [16]): 0.65 L/kg
- CL/F [17]: 4.97 mL/min/kg
- Tmax (Rattus norvegicus [18]): 0.438 h
- CL/F [19]: 2.87 mL/min/kg
- EC50 (Rattus norvegicus [20]): 3.52 mg/kg
- EC50 (Rattus norvegicus [21]): 0.47 mg/kg
- bioavailability [22]: 46.3%
- EC50 (Rattus norvegicus [23]): 3.47 mg/kg
- IC50 [5]: 28 nM
- t1/2 (Rattus norvegicus [24]): 1.51 h
- AUC (Rattus norvegicus [25]): 14843.535 ng·h/mL
- Cmax [26]: 11500 ng/mL
- t1/2 (Rattus norvegicus [27]): 0.58 h
- AUC (Rattus norvegicus [28]): 17190.28 ng·h/mL
- inhibition (Rattus norvegicus [29]): Dose-dependent effect
- Cmax [30]: 38600 ng/mL

SMILES: [2H]C([2H])([2H])C([2H])([2H])c1cc(OC(F)(F)F)cc2c1OC(C(F)(F)F)C(C(=O)O)=C2 (centres undefined)
- CL/F [31]: 1.25 mL/min/kg
- AUC(0-inf) [32]: 403000 ng·h/mL
- CL/F [33]: 0.783 mL/min/kg
- bioavailability [34]: 60.2%
- Vd [35]: 0.39 L/kg
- t1/2 (Rattus norvegicus [36]): 5.946 h
- Tmax [37]: 1.25 h
- Cmax [38]: 51600 ng/mL
- Cmax [39]: 33500 ng/mL
- Vd (Rattus norvegicus [40]): 0.491 L/kg
- AUC(0-inf) [41]: 223000 ng·h/mL
- half-life [42]: 4.54 h
